The text below walks through data of US9023894B2, “Synergistic combinations comprising a renin inhibitor for cardiovascular diseases” (priority 2000, dated 2015).

Test [1] relates to SHR with endothelial dysfunction. As to the kind of experiment: Endothelial dysfunction test: SHR treated with the NO synthesis inhibitor L-NAME for 12 weeks. As to conditions: for proteinuria / kidney lesions: low doses; for proteinuria / survival rates: drugs in drinking fluid; for kidney lesions: kidney sections; for survival rates: low, non-blood pressure reducing doses. The test is classed as in vivo, rat. As for the experimental part: Male 20-24 week-old SHR, purchased from RCC Ldt (Fullingsdorf, Switzerland), are maintained in a temperature- and light-controlled room with free access to rat chow (Nafag 9331, Gossau, Switzerland) and tap water. The experiment is performed in accordance with the NIH guidelines and approved by the Canton Veterinary office (Bew 161, Kantonales Veterinäramt, Liestal, Switzerland). All rats are treated with the NO synthesis inhibitor L-NAME (Sigma Chemicals) administered in drinking water (50 mg/l) for 12 weeks. The average daily dose of L-NAME calculated from the water consumed was 2.5 mg/kg/d (range 2.1-2.7).
The rats can be divided into 5 groups: group 1, control (n=40); Group 2, the compound of formula (I) in form of the hemi-fumarate (ren1; n=40); Group 3, enalapril (ena1; n=30); Group 4, a combination (ena1ren1) of enalapril and the compound of formula (I) in form of the hemi-fumarate; (n=30) and Group 5, the compound of formula (I) in form of the hemi-fumarate (ren2—higher dose; n=30). The drugs are administered in drinking fluid.
Body weight is measured every week. Systolic blood pressure and heart rate are recorded by tail cuff plethysmography 3 and 2 weeks before starting the study and at 2 weeks after drug administration. Urine is collected over a 24 hour period from rats kept in individual (metabolic) cages the week before starting treatment and at weeks 4 and 12 for volume measurement and protein, creatinine, sodium and potassium determination using standard laboratory methods. At the same time points, blood samples are withdrawn from the retro-orbital plexus (maximum 1 ml) for creatinine, Na^+ and K^+ assays.
Ten rats from each group are sacrificed at 4 weeks for collection of kidney and heart for morphological analysis. The remaining rats are sacrificed at 12 weeks. Cardiac and kidney weight is recorded. Terminal blood sampling is performed in 5% EDTA at 4 (morphometry study) and 12 (end of the study) weeks for aldosterone, determination by radioimmunoassay using a DPC coat-a-count aldosterone-RIA kit (Bühlmann, Switzerland).
All data are expressed as mean±SEM. Statistical analysis is performed using a one-way ANOVA, followed by a Duncan's multiple range test and a Newman-Keuls test, 7 for comparison between the different groups. Results with a probability value of less than 0.05 are deemed statistically significant.

The subject of the next test is normotensive rats. As to conditions: Ang II at 1 mg/kg, after treatment; cited from earlier work.

“Also recorded” adds a separate entry of the source.

For the compound `COCCCOc1cc(C[C@@H](C[C@H](N)[C@@H](O)C[C@H](C(=O)NCC(C)(C)C(N)=O)C(C)C)C(C)C)ccc1OC` [2(S),4(S),5(S),7(S)—N-(3-amino-2,2-dimethyl-3-oxopropyl)-2,7-di(1-methylethyl)-4-hydroxy-5-amino-8-[4-methoxy-3-(3-methoxy-propoxy)phenyl]-octanamide], in test [1], the proteinuria entry is “no decrease in proteinuria”, the kidney lesions result is “no reduction of kidney lesions” and the survival rates entry is given as “significant improvements in survival rates”. In addition, the survival rates result in test [1] (listed as renin inhibitor of formula (I)) is on record as “improved survival”. Further, the “pressor effect of Ang II” value in the test with normotensive rats is recorded as “can be reducted”.

As for `CCOC(=O)[C@H](CCc1ccccc1)N[C@@H](C)C(=O)N1CCC[C@H]1C(=O)O` [enalapril, reference compound], in test [1], the proteinuria result is listed as “no decrease in proteinuria”, the kidney lesions entry is on record as “no reduction of kidney lesions” and the survival rates result is reported as “improved survival; also recorded: significant improvements in survival rates”.
